Where two headings read alike, the source gives them in different places.
Key:
[1] = DPPH free radical scavenging assay
Protocol: The DPPH (anti-radicals) investigation was carried out according to our earlier reported protocols. Initially, a methanolic DPPH solution was prepared with a concentration of 0.1%. Subsequently, 100 µL of this solution was mixed with an equal volume of the test samples (100 µL) in 96-well plates, following a 30-min incubation period at 25°C ± 3 °C in the dark. Solutions with concentrations ranging from […] were prepared. Five concentrations of 1,000, 500, 250, 125, and 62.5 µM of the Trolox methanolic solution ([…]) were formed. A color reduction in DPPH was observed after incubation; a microplate reader was used, and absorbance was measured at 540 nm ([Mahnashi et al., 2022a]; [Huneif et al., 2022]). The percentage of scavenging was determined by the formula: Scavenging effect %=control absorbance−sample absorbance/control absorbance×100.

5-LOX = molecular target: T1, 5-LOX (Homo sapiens, UniProt P09917); experiment: 5-Lipoxygenase (5-LOX) inhibition assay; format: biochemical; settings: for inhibition at 62.5 µg/mL: 62.50 μg/mL; for inhibition at 62.5 µg/mL / inhibition at 125 µg/mL / inhibition at 250 µg/mL / inhibition at 500 µg/mL / inhibition at 1000 µg/mL: read-out: % 5-LOX inhibitions; for inhibition at 1000 µg/mL: 1,000 µg/mL; for % 5-LOX inhibitions: 1,000 μg/mL
T1 construct: purchased Sigma-Aldrich (local distributor) 437996
T1 sequence (P09917 1-674): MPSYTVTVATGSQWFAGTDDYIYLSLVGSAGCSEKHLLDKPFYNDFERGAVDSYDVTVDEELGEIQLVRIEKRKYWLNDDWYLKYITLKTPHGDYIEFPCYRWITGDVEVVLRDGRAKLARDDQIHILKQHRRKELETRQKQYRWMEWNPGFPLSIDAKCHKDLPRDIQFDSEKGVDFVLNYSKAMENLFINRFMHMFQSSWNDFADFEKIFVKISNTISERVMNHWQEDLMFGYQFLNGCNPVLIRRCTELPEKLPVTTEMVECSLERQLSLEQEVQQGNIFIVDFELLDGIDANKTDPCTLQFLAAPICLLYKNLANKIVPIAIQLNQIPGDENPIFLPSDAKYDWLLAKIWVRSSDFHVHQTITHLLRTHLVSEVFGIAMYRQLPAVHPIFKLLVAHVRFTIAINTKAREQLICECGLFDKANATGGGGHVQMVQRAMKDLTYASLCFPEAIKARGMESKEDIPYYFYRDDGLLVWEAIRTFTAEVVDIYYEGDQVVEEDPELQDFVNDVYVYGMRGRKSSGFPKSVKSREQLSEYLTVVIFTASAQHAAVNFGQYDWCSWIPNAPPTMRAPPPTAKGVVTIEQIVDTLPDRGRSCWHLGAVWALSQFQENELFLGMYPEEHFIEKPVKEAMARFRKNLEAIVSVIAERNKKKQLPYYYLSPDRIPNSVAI
Protocol: The 5-LOX inhibitory experiments on H. digitata samples were carried out as per published protocol ([Pervaiz et al., 2022]). Several concentrations of plant samples were made, with concentrations ranging from 31.25 to 1,000 μg/mL. Thereafter, 5-LOX was primed with 10,000 U/mL solutions. Linoleic acid (80 mM) was used as the substrate. Likewise, 50 mM phosphate buffer with a pH of 6.3 was primed. Plant samples of varied quantities were dissolved in 250 µL of phosphate buffer, and then, 250 µL of the lipoxygenase enzyme solution was added and incubated for 5 min at room temperature. A volume of 1,000 µL of the substrate solution with a concentration of 0.6 mM was added to the enzyme solution and shaken. The absorbance at 234 nm was observed. All of the tests were conducted three times. In this test, zileuton served as a positive control. The percentage inhibition was determined using the following equation: Percentage Inhibition=Control Abs. −Sample Abs. /Control Abs. ×100.
The IC50 values were derived by plotting the inhibitions against the concentrations of the tested sample solution.

COX-2 = molecular target: T2, COX-2 (Homo sapiens, UniProt P35354); experiment: Cyclooxygenase COX-2 inhibition assay; format: biochemical; settings: for inhibition at 62.5 µg/mL: 62.50 μg/mL; for inhibition at 1000 µg/mL: 1,000 µg/mL
T2 construct: purchased Sigma-Aldrich (local distributor) C0858
T2 sequence (P35354 18-604): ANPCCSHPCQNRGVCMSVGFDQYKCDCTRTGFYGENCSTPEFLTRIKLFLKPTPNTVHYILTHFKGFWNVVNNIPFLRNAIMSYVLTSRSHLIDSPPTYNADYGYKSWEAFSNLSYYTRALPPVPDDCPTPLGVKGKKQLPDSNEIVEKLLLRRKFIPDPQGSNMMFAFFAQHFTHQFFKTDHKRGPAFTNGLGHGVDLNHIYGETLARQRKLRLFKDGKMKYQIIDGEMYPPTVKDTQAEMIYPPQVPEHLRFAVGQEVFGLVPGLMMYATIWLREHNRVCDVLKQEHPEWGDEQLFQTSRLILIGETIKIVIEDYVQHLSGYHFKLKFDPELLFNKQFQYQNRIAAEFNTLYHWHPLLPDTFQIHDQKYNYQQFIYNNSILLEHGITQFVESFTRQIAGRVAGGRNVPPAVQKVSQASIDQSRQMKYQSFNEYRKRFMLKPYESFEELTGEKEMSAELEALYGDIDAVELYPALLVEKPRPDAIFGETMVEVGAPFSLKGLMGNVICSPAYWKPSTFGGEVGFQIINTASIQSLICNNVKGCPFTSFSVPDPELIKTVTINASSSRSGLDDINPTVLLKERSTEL
Protocol: The COX-2 enzyme solution with 300 U/mL concentrations was formed. The enzyme solution (10 µL) was maintained on ice up to 10 min for activation. Moreover, this solution was added to a 50 µL co-factor solution containing 1 mM hematin, 0.9 mM glutathione, and 0.24 mM N,N,N,N-tetramethyl-p-phenylenediamine dihydrochloride (TMPD) in 0.1 M Tris HCl buffer at pH 8.0. […] Likewise, 30 mM of arachidonic acid (20 µL) was mixed for initiating the reaction and incubated for 4–5 min. Following incubation, absorbance of the samples was determined using a UV-visible spectrophotometer at 570 nm. The percentage inhibition of the COX-2 enzyme was determined through the absorbance value per unit time. Enzyme inhibition against various concentrations of investigated samples was used to calculate the IC50 values.

COX-1 = COX-1 (Ovis aries, UniProt P05979); experiment: Cyclooxygenase COX-1 inhibition assay; format: biochemical; settings: for inhibition at 62.5 µg/mL / inhibition at 125 µg/mL / inhibition at 500 µg/mL: read-out: % COX-1 inhibition; for inhibition at 1000 µg/mL: 1,000 µg/mL
Sequence of COX-1 (P05979 25-600): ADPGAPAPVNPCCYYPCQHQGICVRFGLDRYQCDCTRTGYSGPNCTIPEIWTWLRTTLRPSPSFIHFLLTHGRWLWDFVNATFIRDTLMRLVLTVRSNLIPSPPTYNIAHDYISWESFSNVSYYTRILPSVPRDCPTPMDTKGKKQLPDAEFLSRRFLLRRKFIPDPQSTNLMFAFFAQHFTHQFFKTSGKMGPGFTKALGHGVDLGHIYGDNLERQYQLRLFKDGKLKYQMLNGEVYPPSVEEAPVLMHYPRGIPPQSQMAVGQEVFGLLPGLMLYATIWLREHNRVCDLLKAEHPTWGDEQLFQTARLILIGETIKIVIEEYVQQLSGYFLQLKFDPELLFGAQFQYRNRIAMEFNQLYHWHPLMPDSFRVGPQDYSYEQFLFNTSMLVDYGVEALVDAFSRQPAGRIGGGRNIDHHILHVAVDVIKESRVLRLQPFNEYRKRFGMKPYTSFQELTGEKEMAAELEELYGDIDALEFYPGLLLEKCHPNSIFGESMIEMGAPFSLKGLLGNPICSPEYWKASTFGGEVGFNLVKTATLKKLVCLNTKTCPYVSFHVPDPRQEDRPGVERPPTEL

Row | Compound | DPPH IC50 [1] | DPPH % inhibition ([1]; 62.5 µg/mL) | DPPH % inhibition ([1]; 125 µg/mL) | DPPH % inhibition ([1]; 250 µg/mL) | DPPH % inhibition ([1]; 500 µg/mL) | DPPH % inhibition ([1]; 1,000 µg/mL) | IC50 (5-LOX) | inhibition at 62.5 µg/mL (5-LOX) | inhibition at 125 µg/mL (5-LOX) | inhibition at 250 µg/mL (5-LOX) | inhibition at 500 µg/mL (5-LOX) | inhibition at 1000 µg/mL (5-LOX) | IC50 (COX-2) | inhibition at 62.5 µg/mL (COX-2) | inhibition at 125 µg/mL (COX-2) | inhibition at 250 µg/mL (COX-2) | inhibition at 500 µg/mL (COX-2) | inhibition at 1000 µg/mL (COX-2) | inhibition at 62.5 µg/mL (COX-1; 62.50 μg/mL) | inhibition at 125 µg/mL (COX-1; 125 µg/mL) | further results
1 | Cc1cnc(O)nc1O [Compound 1, 5-methylpyrimidine-24,4-diol] | 0.90 µg/mL | 75.00 ± 1.15 % | 78.67 ± 0.89 % | 83.00 ± 0.58 % | 87.03 ± 0.23 % | 93.33 ± 0.49 % | 58.7 µM | 65.68 ± 0.64% | 71.42 ± 0.46% | 76.53 ± 0.41% | 82.45 ± 0.55% | 87.63 ± 0.64% | 84.8 µM | 61.1 ± 0.7% | 66.4 ± 0.7% | 72.7 ± 0.51% | 78.83 ± 0.73% | 83.13 ± 0.8% | 45.8 ± 0.9% | 55.4 ± 0.2% | inhibition at 250 µg/mL (COX-1): 60.6 ± 0.63%; inhibition at 500 µg/mL (COX-1; 500 µg/mL): 66.5 ± 0.9%; inhibition at 1000 µg/mL (COX-1): 73.1 ± 1.04%
2 | CC1=C(O)C(=O)C(O)CO1 (stereo not drawn) [Compound 2, 3,5-dihydroxy-6-methyl-2,3-dihydro-4H-pyran-4-one] | 04 µg/mL | 72.74 ± 0.61 % | 76.54 ± 0.50 % | 81.48 ± 0.64 % | 86.86 ± 0.60 % | 91.62 ± 0.74 % | 73.9 µM | 61.35 ± 0.18% | 66.2 ± 0.15% | 73.42 ± 0.11% | 78.62 ± 0.17% | 83.53 ± 0.2% | 101 µM | 58.12 ± 0.34% | 63.47 ± 0.49% | 68.75 ± 0.14% | 75.59 ± 0.3% | 80.85 ± 0.18% | 40.8 ± 1.06% | 46.4 ± 0.62% | inhibition at 250 µg/mL (COX-1): 54.6 ± 0.58%; inhibition at 500 µg/mL (COX-1; 500 µg/mL): 65.29 ± 0.41%; inhibition at 1000 µg/mL (COX-1): 71.37 ± 0.56%
3 | Cc1ccc(C(C)C)c(O)c1 [Compound 3, 2-isopropyl-5-methylphenol] | 17 µg/mL | 62.98 ± 0.72 % | 67.90 ± 0.96 % | 72.91 ± 0.88 % | 77.08 ± 0.47 % | 81.03 ± 0.35 % | 174 µM | 51.9 ± 1.16% | 57.34 ± 0.55% | 61.36 ± 0.49% | 67.39 ± 0.49% | 73.39 ± 0.6% | 145 µM | 53 ± 0.57% | 62.5 ± 0.44% | 66.33 ± 0.33% | 74.7 ± 1.2% | 79 ± 0.16% | – | – | inhibition at 62.5 µg/mL (COX-1): 41.3 ± 1.01%; inhibition at 125 µg/mL (COX-1): 46.7 ± 0.78%; inhibition at 500 µg/mL (COX-1): 57.9 ± 0.97%
4 | C=Cc1ccc(O)cc1OC [Compound 4, 3-methoxy-4-vinylphenol] | 40 µg/mL | 58.15 ± 0.22 % | 63.36 ± 0.71 % | 68.39 ± 0.35 % | 73.42 ± 0.12 % | 77.73 ± 0.03 % | 182 µM | 59.8 ± 0.65% | 66.7 ± 0.78% | 75.7 ± 0.62% | 80.76 ± 0.63% | 76.7 ± 0.66% | 135 µM | 55.56 ± 0.52% | 64.78 ± 0.6% | 71.46 ± 0.53% | 77.68 ± 0.63% | 85.72 ± 0.79% | 33 ± 1.15% | 42.7 ± 0.89% | % 5-LOX inhibitions (5-LOX; listed as Comp 4): 84.83 ± 0.62 %; inhibition at 250 µg/mL (COX-1): 49 ± 0.58%; inhibition at 500 µg/mL (COX-1; 500 µg/mL): 63.03 ± 0.23%; inhibition at 1000 µg/mL (COX-1): 71.33 ± 0.49%
5 | C=Cc1cc(OC)c(O)c(OC)c1 [Compound 5, 2,6-dimethoxy-4-vinylphenol] | 16 µg/mL | 60.48 ± 0.23 % | 63.99 ± 0.19 % | 67.05 ± 0.13 % | 71.75 ± 0.21 % | 75.28 ± 0.42 % | 171 µM | 49.9 ± 0.65% | 57.2 ± 0.57% | 65.5 ± 1.04% | 71.3 ± 1.11% | 84.83 ± 0.62% | 217 µM | 46.9 ± 0.42% | 56.4 ± 0.63% | 61 ± 0.33% | 66.2 ± 0.73% | – | 29.15 ± 0.22% | 41.4 ± 0.71% | % 5-LOX inhibitions (5-LOX; listed as Comp 5): 76.7 ± 0.66 %; inhibition at 250 µg/mL (COX-1): 47.39 ± 0.35%; inhibition at 500 µg/mL (COX-1; 500 µg/mL): 57.42 ± 0.12%; inhibition at 1000 µg/mL (COX-1): 67.73 ± 0.03%
